Laboratory results as given in patent US7008905B2, “Method of combating undesired plant growth on cereals” (BASF Aktiengesellschaft, priority 2000, dated 2006).

What was measured:
Type in all cases: in vivo
PAPRH = test: Pre-emergence test, weed control; details: 3 weeks after treatment, rating 0-100 (100=death), Table 3
Procedure: (§1) The pre-emergence tests involve spraying a liquid formulation of the compound onto the soil in which the seeds of the plant species mentioned above has recently been sown.
(§2) The soil used in the tests is a prepared horticultural loam. The formulations used in the tests are prepared from solutions of the test compounds in acetone containing 0.4% by weight of an alkylphenol/ethylene oxide condensate available under the trade mark TRITON X-155.
(§3) These acetone solutions are diluted with water and the resulting formulations applied at dosage levels corresponding to 15 g, 30 g, 60 g, 120 g or 240 g of active material per hectare in a volume equivalent to 900 liters per hectare. In these tests untreated sown soil is used as control. The herbicidal effects of the test compounds are assessed visually three weeks after spraying the soil and are recorded an a 0 to 100 scale. A rating 0 indicates growth as untreated control, a rating 100 indicates death. An increase of 10 unit an the linear scale approximates to a 10% increase in the level of effect. The results of the assessment are set out in Tables 1 to 4.

VIOAR = test: Pre-emergence test, weed control; details: 3 weeks after treatment, rating 0-100 (100=death), Table 3
Procedure: as §1, §2, §3

[1] = test system: Triticum aestivum variety “Kanzler”; test: Pre-emergence test, selectivity; details: 3 weeks after treatment, rating 0-100 (100=death), Table 4
Procedure: as §1, §2, §3

[2] = test system: Triticum aestivum variety “Monopol”; test: Pre-emergence test, selectivity; details: 3 weeks after treatment, rating 0-100 (100=death), Table 4
Procedure: as §1, §2, §3

Stellaria media = test: Pre-emergence test, weed control; details: 3 weeks after treatment, rating 0-100 (100=death), Table 3
Procedure: as §1, §2
(§4) In these tests untreated sown soil is used as control. The herbicidal effects of the test compounds are assessed visually three weeks after spraying the soil and are recorded an a 0 to 100 scale. A rating 0 indicates growth as untreated control, a rating 100 indicates death. An increase of 10 unit an the linear scale approximates to a 10% increase in the level of effect. The results of the assessment are set out in Tables 1 to 4.

Galium aparine = test: Pre-emergence test, weed control; details: 3 weeks after treatment, rating 0-100 (100=death), Table 3
Procedure: as §1, §2, §4

Poa annua = test: Pre-emergence test, weed control; details: 3 weeks after treatment, rating 0-100 (100=death), Table 3
Procedure: as §1, §2, §4

Apera spica-venti = test: Pre-emergence test, weed control; details: 3 weeks after treatment, rating 0-100 (100=death), Table 3
Procedure: as §1, §2, §4

Veronica persica = test: Pre-emergence test, weed control; details: 3 weeks after treatment, rating 0-100 (100=death), Table 3
Procedure: as §1, §2, §4

Setaria viridis = test: Pre-emergence test, weed control; details: 3 weeks after treatment, rating 0-100 (100=death), Table 3
Procedure: as §1, §2, §4

Lolium perenne = test: Pre-emergence test, weed control; details: 3 weeks after treatment, rating 0-100 (100=death), Table 3
Procedure: as §1, §2, §4

Lamium purpureum = test: Pre-emergence test, weed control; details: 3 weeks after treatment, rating 0-100 (100=death), Table 3
Procedure: as §1, §2, §4

Matricaria inodora = test: Pre-emergence test, weed control; details: 3 weeks after treatment, rating 0-100 (100=death), Table 3
Procedure: as §1, §2, §4

Alopecurus myosuroides = test: Pre-emergence test, weed control; details: 3 weeks after treatment, rating 0-100 (100=death), Table 3
Procedure: as §1, §2, §4

wheat = test: Pre-emergence test, tolerance in wheat; details: in vivo
Procedure: as §1, §2, §3

## Cc1cnc(-c2ccc(C(F)(F)F)cc2)nc1Oc1ccnc(Cl)c1 [REF-4]
PAPRH; 0.030 kg/ha
  PAPRH weed control rating: 100
PAPRH; 0.060 kg/ha
  PAPRH weed control rating: 100
PAPRH; 0.120 kg/ha
  PAPRH weed control rating: 100
PAPRH; 0.240 kg/ha
  PAPRH weed control rating: 100
VIOAR; 0.030 kg/ha
  VIOAR weed control rating: 99
VIOAR; 0.060 kg/ha
  VIOAR weed control rating: 100
VIOAR; 0.120 kg/ha
  VIOAR weed control rating: 100
VIOAR; 0.240 kg/ha
  VIOAR weed control rating: 100
[1]; 0.030 kg/ha
  TRZAWK rating (Selectivity): 10
[1]; 0.060 kg/ha
  TRZAWK rating (Selectivity): 15
[1]; 0.120 kg/ha
  TRZAWK rating (Selectivity): 22
[1]; 0.240 kg/ha
  TRZAWK rating (Selectivity): 22
[2]; 0.030 kg/ha
  TRZAWM rating (Selectivity): 15
[2]; 0.060 kg/ha
  TRZAWM rating (Selectivity): 8
[2]; 0.120 kg/ha
  TRZAWM rating (Selectivity): 22
[2]; 0.240 kg/ha
  TRZAWM rating (Selectivity): 35
Stellaria media; 0.030 kg/ha
  STEME weed control rating: 92
Stellaria media; 0.060 kg/ha
  STEME weed control rating: 100
Stellaria media; 0.120 kg/ha
  STEME weed control rating: 100
Stellaria media; 0.240 kg/ha
  STEME weed control rating: 100
Galium aparine; 0.240 kg/ha
  GALAP weed control rating: 90
Poa annua; 0.030 kg/ha
  POAAN weed control rating: 100
Poa annua; 0.060 kg/ha
  POAAN weed control rating: 100
Poa annua; 0.120 kg/ha
  POAAN weed control rating: 100
Poa annua; 0.240 kg/ha
  POAAN weed control rating: 100
Apera spica-venti; 0.030 kg/ha
  APESV weed control rating: 100
Apera spica-venti; 0.060 kg/ha
  APESV weed control rating: 100
Apera spica-venti; 0.120 kg/ha
  APESV weed control rating: 100
Apera spica-venti; 0.240 kg/ha
  APESV weed control rating: 100
Veronica persica; 0.030 kg/ha
  VERPE weed control rating: 98
Veronica persica; 0.060 kg/ha
  VERPE weed control rating: 100
Veronica persica; 0.120 kg/ha
  VERPE weed control rating: 100
Veronica persica; 0.240 kg/ha
  VERPE weed control rating: 100
Setaria viridis; 0.030 kg/ha
  SETVI weed control rating: 65
Setaria viridis; 0.060 kg/ha
  SETVI weed control rating: 80
Setaria viridis; 0.120 kg/ha
  SETVI weed control rating: 100
Setaria viridis; 0.240 kg/ha
  SETVI weed control rating: 100
Lolium perenne; 0.030 kg/ha
  LOLPE weed control rating: 98
Lolium perenne; 0.060 kg/ha
  LOLPE weed control rating: 98
Lolium perenne; 0.120 kg/ha
  LOLPE weed control rating: 100
Lolium perenne; 0.240 kg/ha
  LOLPE weed control rating: 100
Lamium purpureum; 0.030 kg/ha
  LAMPU weed control rating: 97
Lamium purpureum; 0.060 kg/ha
  LAMPU weed control rating: 100
Lamium purpureum; 0.120 kg/ha
  LAMPU weed control rating: 100
Lamium purpureum; 0.240 kg/ha
  LAMPU weed control rating: 100
Matricaria inodora; 0.030 kg/ha
  MATIN weed control rating: 100
Matricaria inodora; 0.060 kg/ha
  MATIN weed control rating: 100
Matricaria inodora; 0.120 kg/ha
  MATIN weed control rating: 100
Matricaria inodora; 0.240 kg/ha
  MATIN weed control rating: 100
Alopecurus myosuroides; 0.030 kg/ha
  ALOMY weed control rating: 20
Alopecurus myosuroides; 0.060 kg/ha
  ALOMY weed control rating: 92
Alopecurus myosuroides; 0.120 kg/ha
  ALOMY weed control rating: 93
Alopecurus myosuroides; 0.240 kg/ha
  ALOMY weed control rating: 98
wheat
  maximum tolerated dose in wheat / dose at which sufficiently selective in wheat: 60 g/ha

## Cc1nc(-c2ccc(C(F)(F)F)cc2)nc(Oc2ccnc(Cl)c2)c1C [REF-5]
PAPRH; 0.030 kg/ha
  PAPRH weed control rating: 85
PAPRH; 0.060 kg/ha
  PAPRH weed control rating: 95
PAPRH; 0.120 kg/ha
  PAPRH weed control rating: 100
PAPRH; 0.240 kg/ha
  PAPRH weed control rating: 100
VIOAR; 0.030 kg/ha
  VIOAR weed control rating: 96
VIOAR; 0.060 kg/ha
  VIOAR weed control rating: 97
VIOAR; 0.120 kg/ha
  VIOAR weed control rating: 98
VIOAR; 0.240 kg/ha
  VIOAR weed control rating: 99
[1]; 0.120 kg/ha
  TRZAWK rating (Selectivity): 1
[1]; 0.240 kg/ha
  TRZAWK rating (Selectivity): 8
[2]; 0.120 kg/ha
  TRZAWM rating (Selectivity): 1
[2]; 0.240 kg/ha
  TRZAWM rating (Selectivity): 8
Stellaria media; 0.030 kg/ha
  STEME weed control rating: 10
Stellaria media; 0.060 kg/ha
  STEME weed control rating: 25
Stellaria media; 0.120 kg/ha
  STEME weed control rating: 35
Stellaria media; 0.240 kg/ha
  STEME weed control rating: 70
Galium aparine; 0.030 kg/ha
  GALAP weed control rating: 2
Galium aparine; 0.060 kg/ha
  GALAP weed control rating: 5
Galium aparine; 0.120 kg/ha
  GALAP weed control rating: 50
Poa annua; 0.030 kg/ha
  POAAN weed control rating: 92
Poa annua; 0.060 kg/ha
  POAAN weed control rating: 100
Poa annua; 0.120 kg/ha
  POAAN weed control rating: 100
Poa annua; 0.240 kg/ha
  POAAN weed control rating: 100
Apera spica-venti; 0.030 kg/ha
  APESV weed control rating: 100
Apera spica-venti; 0.060 kg/ha
  APESV weed control rating: 100
Apera spica-venti; 0.120 kg/ha
  APESV weed control rating: 100
Apera spica-venti; 0.240 kg/ha
  APESV weed control rating: 100
Veronica persica; 0.030 kg/ha
  VERPE weed control rating: 55
Veronica persica; 0.060 kg/ha
  VERPE weed control rating: 93
Veronica persica; 0.120 kg/ha
  VERPE weed control rating: 95
Veronica persica; 0.240 kg/ha
  VERPE weed control rating: 100
Setaria viridis; 0.030 kg/ha
  SETVI weed control rating: 20
Setaria viridis; 0.060 kg/ha
  SETVI weed control rating: 50
Setaria viridis; 0.120 kg/ha
  SETVI weed control rating: 95
Setaria viridis; 0.240 kg/ha
  SETVI weed control rating: 100
Lolium perenne; 0.030 kg/ha
  LOLPE weed control rating: 40
Lolium perenne; 0.060 kg/ha
  LOLPE weed control rating: 90
Lolium perenne; 0.120 kg/ha
  LOLPE weed control rating: 98
Lolium perenne; 0.240 kg/ha
  LOLPE weed control rating: 99
Lamium purpureum; 0.030 kg/ha
  LAMPU weed control rating: 0
Lamium purpureum; 0.060 kg/ha
  LAMPU weed control rating: 20
Lamium purpureum; 0.120 kg/ha
  LAMPU weed control rating: 55
Lamium purpureum; 0.240 kg/ha
  LAMPU weed control rating: 100
Matricaria inodora; 0.030 kg/ha
  MATIN weed control rating: 85
Matricaria inodora; 0.060 kg/ha
  MATIN weed control rating: 100
Matricaria inodora; 0.120 kg/ha
  MATIN weed control rating: 100
Matricaria inodora; 0.240 kg/ha
  MATIN weed control rating: 100
Alopecurus myosuroides; 0.030 kg/ha
  ALOMY weed control rating: 5
Alopecurus myosuroides; 0.060 kg/ha
  ALOMY weed control rating: 15
Alopecurus myosuroides; 0.120 kg/ha
  ALOMY weed control rating: 30
Alopecurus myosuroides; 0.240 kg/ha
  ALOMY weed control rating: 35
wheat
  maximum tolerated dose in wheat / dose at which sufficiently selective in wheat: 240 g/ha
